Biological target: T1, NKA receptor (Mus musculus, UniProt P30549)
T1 construct: contractions of the urinary bladder in the anaesthetized mouse; from tissue; host or cells: urinary bladder of the anaesthetized animal, in vivo
T1 sequence (P30549 1-384): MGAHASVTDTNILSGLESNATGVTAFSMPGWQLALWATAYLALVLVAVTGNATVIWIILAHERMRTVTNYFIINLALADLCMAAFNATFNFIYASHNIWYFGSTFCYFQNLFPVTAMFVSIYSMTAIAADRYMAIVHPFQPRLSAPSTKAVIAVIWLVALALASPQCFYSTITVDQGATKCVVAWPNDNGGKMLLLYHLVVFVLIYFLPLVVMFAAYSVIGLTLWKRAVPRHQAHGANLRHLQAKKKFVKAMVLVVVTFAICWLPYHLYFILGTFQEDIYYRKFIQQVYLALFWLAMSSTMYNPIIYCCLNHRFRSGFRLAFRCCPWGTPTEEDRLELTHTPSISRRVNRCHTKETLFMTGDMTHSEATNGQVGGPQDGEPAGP
Assay: in vivo inhibition of agonist [betaAla8]NKA(4-10)-induced contractions of the urinary bladder after intravenous administration
Conditions: anaesthetized mouse, 10 nmol/Kg i.v.
Experimental: The capability of the compounds of the present invention to interact as agonists or antagonists with the neurokynin A (NKA) receptor has been valued in a in vitro test using the pulmonary artery of a rabbit (RPA) (Rovero et al., Neuropeptides, 1989, 13, 263-270) and their activity was determined as pKB ([…] of the dissociation constant), as described in Jenkinson et al., TiPS, 12, 53-56, 1991. For example, compound 2 has shown a pKB =8.67. The capability of the products of the present invention to interact as agonists or antagonists with NKA receptor has been valued in vivo as capability, after intravenous administration,to inhibit the agonist [betaAla^8 ] NKA (4-10)-induced contractions of the urinary bladder in the anaesthetized mouse, as described in Maggi et al., J. Pharmacol. Exp. Ther., 1991, 257, 1172. Compound 1, e.g., causes, at dose of 10 nmol/Kg i.v., an inhibitory effect of 50-70%, as it has been valued at different times. The effect lasts over a period of more than 3 hours.

cyclo([Asn(β-D-Glc)-Asp-Trp-Phe-Dap-Leu]cyclo(2β-5β)) [Compound 1]
duration of the inhibitory effect: more than 3 hours | inhibitory effect on [betaAla8]NKA(4-10)-induced contractions of the urinary bladder (valued at different times): 50-70%

Reference: patent publication US6150325A, “Bicyclic tachykinins antagonists, preparation thereof and their use in pharmaceutical compositions” (A. Menarini Industrie Farmaceutiche Riunite S.r.l., priority 1995, dated 2000)
